Measured values: patent US12653191B2, “Active compound combinations” (Bayer Aktiengesellschaft, priority 2020, dated 2026)
“And” between values parts separate entries of the source, which are not always exact repeats. Identical values can stand only once.

Columns and labels:
Alternaria alternate = test: in vitro-Test with fungal microorganisms, Method A (tables A1-A12); type: cell-based, Alternaria alternata; details: applied alone
Method in brief: (§1)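 Methanol/emulsifier compound solution evaporated in well; liquid potato dextrose medium + spore or mycelium suspension added; 20° C, 85% RH, 3-5 d; photometric read 620 nm; % efficacy vs untreated.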

Alternaria alternata = test: in vitro-Test with fungal microorganisms, Method B (tables A13-A22); type: cell-based
Method in brief: (§2)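 Efficacy scale: 0% means growth equal to the untreated control, 100% means none detected. Compounds are dried from methanol with emulsifier before adding inoculated growth medium; incubation at 20° C., 85% relative humidity for 3 to 7 days precedes photometric inhibition readout.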

Botrytis cinerea [1] = test: in vitro-Test with fungal microorganisms, Method A (tables B1-B14); type: cell-based; details: for Efficacy %: alone
Method in brief: as §1

Botrytis cinerea [2] = test: in vitro-Test with fungal microorganisms, Method B (tables B15-B18); type: cell-based; details: alone
Method in brief: as §2

Cercospora beticola [3] = test: in vitro-Test with fungal microorganisms, Method A (tables C1-C10); type: cell-based
Method in brief: as §1

Cercospora beticola [4] = test: in vitro-Test with fungal microorganisms, Method B (tables C11-C20); type: cell-based; details: single compound
Method in brief: as §2

[5] = test system: Colletotrichum lindemuthianum; test: in vitro-Test with fungal microorganisms, Method A (tables D1-D8); type: cell-based
Method in brief: as §1

Cordana musae [6] = test: in vitro-Test with fungal microorganisms, Method A (tables E1-E8); type: cell-based; details: single substance
Method in brief: as §1

Cordana musae [7] = test: in vitro-Test with fungal microorganisms, Method B (tables E9-E16); type: cell-based; details: for Efficacy: single active; for Efficacy %: single substance
Method in brief: as §2

Diaporthe citri [8] = test: in vitro-Test with fungal microorganisms, Method A (tables F1-F11); type: cell-based
Method in brief: as §1

Diaporthe citri [9] = test: in vitro-Test with fungal microorganisms, Method B (tables F12-F15); type: cell-based
Method in brief: as §2

Fusarium culmorum = test: in vitro-Test with fungal microorganisms, Method B (tables G5-G15); type: cell-based
Method in brief: as §2

Parastagonospora nodorum = test: in vitro-Test with fungal microorganisms, Method A (tables H1-H4); type: cell-based
Method: Example: In Vitro-Test with Fungal Microorganisms
Wells of 96-well microtiter plates are filled with 10 μl of a preparation of test compound or compound combination in methanol+emulsifier alkylaryl-polyglycol-ether. Thereafter, the solvent is evaporated in a hood. At the next step, 100 μl of liquid potato dextrose medium is given into each well, that has been amended with an appropriate concentration of spores or mycelium suspension of the test fungus.
With the aid of a photometer, the extinction in all wells is measured at the wavelength of 620 nm.
The microtiter plates are incubated at 20° C. and 85% relative humidity. The inhibition of growth is determined again photometrically 3-5 days after the application. Efficacy is calculated in relation to the untreated control, 0% efficacy means fungal growth as high as in untreated control while 100% efficacy means no fungal growth is measured.
The data in tables A1 to A12, B1 to B14, C1 to C10, D1 to D8, E1 to E8, F1 to F11, G1 to G4, H1 to H4 and I1 to I5 were collected according to Method A. The data in tables A13 to A22, B15 to B18, C11 to C20, E9 to E16, F12 to F15, G5 to G15, H5 to H8, I6 to I11 and J1 to J11 were collected according to Method B.

[10] = test system: Ustilago segetum var. avenae; test: in vitro-Test with fungal microorganisms, Method A (tables I1-I5); type: cell-based; details: alone
Method in brief: as §1

[11] = test system: Ustilago segetum var. avenae; test: in vitro-Test with fungal microorganisms, Method B (tables I6-I11); type: cell-based
Method in brief: as §2

Colletotrichum coccodes = test: in vitro-Test with fungal microorganisms, Method B (tables J1-J11); type: cell-based
Method in brief: as §2

How did the Efficacy % (Alternaria alternate; 0.04 ppm) turn out when `COc1ccnc(C(=O)N[C@H]2COC(=O)[C@H](Cc3ccccc3)[C@@H](OC(=O)C(C)C)[C@H](C)OC2=O)c1OCOC(=O)C(C)C` [(3.025) fenpicoxamid, fenpicoxamid] was run?
The Efficacy % was 5% and 9%.

And the Efficacy % (Alternaria alternate; 0.2 ppm)?
The Efficacy % was 2% and 7%.

What about the Efficacy % (Alternaria alternate; 1.0 ppm) of the same molecule?
Its Efficacy % is 41% and 30%.

What about the Efficacy % (Alternaria alternate; 5.0 ppm) of the same molecule?
The Efficacy % was 76% and 59%.

What about the Efficacy (Alternaria alternata; single compound, 0.008 ppm) of the same molecule?
Its Efficacy is 6%.

What about the Efficacy (Alternaria alternata; single compound, 0.04 ppm) of the same molecule?
Its Efficacy is 14%.

What about the Efficacy (Alternaria alternata; single compound, 1 ppm) of the same molecule?
Its Efficacy is 61%.

What about the Efficacy (Botrytis cinerea [1]; 0.04 ppm) of the same molecule?
Its Efficacy is 6%.

And the Efficacy (Botrytis cinerea [1]; 0.2 ppm)?
Its Efficacy is 6%.

What about the Efficacy (Botrytis cinerea [1]; 1.0 ppm) of the same molecule?
Its Efficacy is 21%.

What about the Efficacy % (Botrytis cinerea [1]; 0.04 ppm) of the same molecule?
Its Efficacy % is 15%.

What about the Efficacy % (Botrytis cinerea [1]; 0.2 ppm) of the same molecule?
The Efficacy % was 9%.

And the Efficacy % (Botrytis cinerea [1]; 1.0 ppm)?
The Efficacy % was 15%.

And the Efficacy % (Botrytis cinerea [1]; 5.0 ppm)?
Its Efficacy % is 45%.

What about the Efficacy % (Botrytis cinerea [2]; 0.008 ppm) of the same molecule?
Its Efficacy % is 0%.

What about the Efficacy % (Botrytis cinerea [2]; 0.2 ppm) of the same molecule?
The Efficacy % was 14%.

And the Efficacy % (Botrytis cinerea [2]; 1 ppm)?
Its Efficacy % is 52%.

What about the Efficacy % (Cercospora beticola [3]; 0.04 ppm) of the same molecule?
Its Efficacy % is 0%.

And the Efficacy % (Cercospora beticola [3]; 0.2 ppm)?
The Efficacy % was 2%.

What about the Efficacy % (Cercospora beticola [3]; 0.2 ppm alone) of the same molecule?
Its Efficacy % is 41% and 35%.

And the Efficacy % (Cercospora beticola [3]; 1.0 ppm)?
The Efficacy % was 20%.

And the Efficacy % (Cercospora beticola [3]; 1.0 ppm alone)?
The Efficacy % was 62% and 53%.

What about the Efficacy % (Cercospora beticola [3]; 5.0 ppm) of the same molecule?
The Efficacy % was 98%.

And the Efficacy % (Cercospora beticola [3]; 5.0 ppm alone)?
The Efficacy % was 92% and 88%.

What about the Efficacy % (Cercospora beticola [4]; 0.008 ppm) of the same molecule?
The Efficacy % was 0%.

What about the Efficacy % (Cercospora beticola [4]; 0.2 ppm) of the same molecule?
Its Efficacy % is 17% and 31%.

What about the Efficacy % (Cercospora beticola [4]; 1 ppm) of the same molecule?
Its Efficacy % is 97% and 100%.

And the Efficacy % ([5]; single active at 0.04 ppm)?
The Efficacy % was 0%.

What about the Efficacy % ([5]; single active at 0.2 ppm) of the same molecule?
Its Efficacy % is 5%.

What about the Efficacy % ([5]; single active at 1.0 ppm) of the same molecule?
The Efficacy % was 69% and 66%.

And the Efficacy % ([5]; single active at 5.0 ppm)?
The Efficacy % was 79% and 86%.

And the Efficacy % (Cordana musae [6]; 1.0 ppm)?
The Efficacy % was 40%.

And the Efficacy % (Cordana musae [6]; 5.0 ppm)?
Its Efficacy % is 80%.

What about the Efficacy (Cordana musae [7]; 0.2 ppm) of the same molecule?
The Efficacy was 44%.

And the Efficacy % (Cordana musae [7]; 0.008 ppm)?
Its Efficacy % is 0%.

What about the Efficacy % (Cordana musae [7]; 0.2 ppm) of the same molecule?
Its Efficacy % is 52%.

And the Efficacy (Diaporthe citri [8]; applied alone, 0.04 ppm)?
The Efficacy was 3%.

What about the Efficacy (Diaporthe citri [8]; applied alone, 1.0 ppm) of the same molecule?
Its Efficacy is 79% and 66%.

What about the Efficacy (Diaporthe citri [8]; applied alone, 5.0 ppm) of the same molecule?
The Efficacy was 92%.

What about the Efficacy (Diaporthe citri [9]; Table F12, 0.008 ppm alone) of the same molecule?
Its Efficacy is 0%.

What about the Efficacy (Diaporthe citri [9]; Table F12, 0.2 ppm alone) of the same molecule?
Its Efficacy is 83%.

What about the Efficacy (Diaporthe citri [9]; Table F12, 1 ppm alone) of the same molecule?
The Efficacy was 94%.

What about the Efficacy (Diaporthe citri [9]; Table F13, 0.2 ppm alone) of the same molecule?
Its Efficacy is 79%.

And the Efficacy (Fusarium culmorum; 0.008 ppm alone)?
The Efficacy was 10%.

What about the Efficacy (Fusarium culmorum; single active compound, 0.008 ppm) of the same molecule?
The Efficacy was 7% and 5%.

What about the Efficacy (Fusarium culmorum; single active compound, 0.04 ppm) of the same molecule?
Its Efficacy is 1% and 9%.

And the Efficacy (Fusarium culmorum; single active compound, 0.2 ppm)?
The Efficacy was 18% and 25%.

What about the Efficacy (Fusarium culmorum; single active compound, 1 ppm) of the same molecule?
The Efficacy was 17%.

And the Efficacy (Parastagonospora nodorum; 0.04 ppm)?
Its Efficacy is 19%.

And the Efficacy (Parastagonospora nodorum; 0.2 ppm)?
Its Efficacy is 61%.

And the Efficacy (Parastagonospora nodorum; 1.0 ppm)?
The Efficacy was 64%.

And the Efficacy (Parastagonospora nodorum; 5.0 ppm)?
Its Efficacy is 72%.

And the Efficacy % ([10]; 0.04 ppm)?
The Efficacy % was 0%.

And the Efficacy % ([10]; 0.2 ppm)?
Its Efficacy % is 0%.

What about the Efficacy % ([10]; 1.0 ppm) of the same molecule?
The Efficacy % was 0%.

And the Efficacy % ([10]; 5.0 ppm)?
Its Efficacy % is 0%.

What about the Efficacy % ([11]; 0.008 ppm) of the same molecule?
Its Efficacy % is 14%.

What about the Efficacy % ([11]; 0.04 ppm) of the same molecule?
Its Efficacy % is 6%.

What about the Efficacy % ([11]; 0.2 ppm) of the same molecule?
Its Efficacy % is 1%.

What about the Efficacy % (Colletotrichum coccodes; single active compound at 0.2 ppm) of the same molecule?
Its Efficacy % is 23% and 33%.

And the Efficacy % (Colletotrichum coccodes; single active compound at 1 ppm)?
The Efficacy % was 16%.

Which results are given for mancozeb [(5.013) mancozeb]?
Efficacy (Alternaria alternata; 0.8 ppm): 4%; Efficacy (Alternaria alternata; 4 ppm): 36%; Efficacy (Alternaria alternata; 20 ppm): 63%; Efficacy (Botrytis cinerea [1]; 0.4 ppm): 0%; Efficacy (Botrytis cinerea [1]; 2.0 ppm): 0%; Efficacy (Botrytis cinerea [1]; 10.0 ppm): 33%; Efficacy % (Botrytis cinerea [1]; 0.8 ppm): 15%; Efficacy % (Botrytis cinerea [1]; 4.0 ppm): 0%; Efficacy % (Botrytis cinerea [1]; 20.0 ppm): 15%; Efficacy % (Botrytis cinerea [1]; 100.0 ppm): 83%; Efficacy % (Botrytis cinerea [2]; 0.8 ppm): 0% and 4%; Efficacy % (Cercospora beticola [3]; 0.08 ppm): 4% and 0%; Efficacy % (Cercospora beticola [3]; 0.08 ppm alone): 0%; Efficacy % (Cercospora beticola [3]; 0.4 ppm alone): 0%; Efficacy % (Cercospora beticola [3]; 2.0 ppm): 100%; Efficacy % (Cercospora beticola [3]; 2.0 ppm alone): 100%; Efficacy % (Cercospora beticola [3]; 10.0 ppm): 100%; Efficacy % (Cercospora beticola [3]; 10.0 ppm, alone): 100%; Efficacy % (Cercospora beticola [4]; 0.8 ppm): 0%; Efficacy % ([5]; single active at 0.08 ppm): 4%; Efficacy % ([5]; single active at 0.4 ppm): 0%; Efficacy % ([5]; single active at 10.0 ppm): 100%; Efficacy % (Cordana musae [6]; 0.08 ppm): 0%; Efficacy % (Cordana musae [6]; 0.4 ppm): 0% and 3%; Efficacy % (Cordana musae [6]; 2.0 ppm): 31% and 32%; Efficacy % (Cordana musae [6]; 10.0 ppm): 100%; Efficacy (Cordana musae [7]; 0.8 ppm): 0%; Efficacy (Cordana musae [7]; 4 ppm): 14% and 19%; Efficacy (Cordana musae [7]; 20 ppm): 100%; Efficacy (Diaporthe citri [8]; Table F10, 0.08 ppm alone): 0%; Efficacy (Diaporthe citri [8]; Table F10, 0.4 ppm alone): 46%; Efficacy (Diaporthe citri [8]; Table F10, 2.0 ppm alone): 100%; Efficacy (Diaporthe citri [8]; Table F10, 10.0 ppm alone): 100%; Efficacy (Diaporthe citri [8]; applied alone, 0.08 ppm): 6%; Efficacy (Diaporthe citri [8]; applied alone, 0.4 ppm): 21%; Efficacy (Diaporthe citri [8]; applied alone, 2.0 ppm): 100%; Efficacy (Diaporthe citri [8]; applied alone, 10.0 ppm): 100%; Efficacy (Diaporthe citri [8]; single active, 0.08 ppm): 2%; Efficacy (Diaporthe citri [8]; single active, 0.4 ppm): 0%; Efficacy (Diaporthe citri [8]; single active, 2.0 ppm): 46%; Efficacy (Diaporthe citri [8]; single active, 10.0 ppm): 100%; Efficacy (Diaporthe citri [9]; Table F14, 0.8 ppm alone): 0%; Efficacy (Diaporthe citri [9]; Table F14, 4 ppm alone): 78%; Efficacy (Diaporthe citri [9]; Table F14, 20 ppm alone): 99%; Efficacy (Fusarium culmorum; single active compound, 0.8 ppm): 0%; Efficacy (Fusarium culmorum; single active compound, 4 ppm): 16%; Efficacy (Fusarium culmorum; single active compound, 20 ppm): 50% and 31%; Efficacy (Parastagonospora nodorum; 0.08 ppm): 0%; Efficacy (Parastagonospora nodorum; 0.4 ppm): 5%; Efficacy (Parastagonospora nodorum; 2.0 ppm): 37%; Efficacy (Parastagonospora nodorum; 10.0 ppm): 100%; Efficacy % ([10]; 0.08 ppm): 3%; Efficacy % ([10]; 0.4 ppm): 0%; Efficacy % ([10]; 2.0 ppm): 10%; Efficacy % ([10]; 10.0 ppm): 98%; Efficacy % (Colletotrichum coccodes; single active compound at 0.8 ppm): 0%; Efficacy % (Colletotrichum coccodes; single active compound at 4 ppm): 0%; Efficacy % (Colletotrichum coccodes; single active compound at 20 ppm): 100%
